In US12440479B2, “Prevention or treatment of chronic organ injury” (GEORG-AUGUST-UNIVERSITAET GOETTINGEN, STIFTUNG …, priority 2018, dated 2025):

Experiments:
ARNT proximal promoter = assay: ChIP PCR after Yy1 pull-down; type: cell-based, mouse; details: cultured TECs, FK506 added to culture media
Method: DNA and protein interaction was performed with the OneDay ChIP Kit (Diagenode, Seraing, Belgium) according to the manufacturer's instructions. 2×10^7 MCT cells have been used for each ChIP reaction. Cell lysates were sonicated using an ultrasonic processor S-4000 (Misonix, Farmingdale, USA). Immunoprecipitation was performed with a ChIP grade antibody against Yy1 (ab12132, Abcam Biochemicals, Cambridge, UK) and Arnt (3718, Cell Signaling, Danvers, USA). Enriched DNA was analyzed by qRT-PCR with EpiTect ChIP qPCR primers for genomic Arnt (Qiagen, Hilden, Germany), oligonucleotide sequences for genomic Alk3 are listed in Table 10.

UUO-challenged kidneys = assay: Unilateral ureteral obstruction (UUO): tubular injury and interstitial fibrosis (histology, immunostaining); type: in vivo, mice
[1] = system: intrarenal ARNT/ALK3 signaling; assay: UUO kidneys: ARNT/ALK3 expression and pSmad1/5/8 (qRT-PCR, immunoblotting, immunostaining); type: in vivo, mice; details: for canonical BMP signaling responses / intrarenal ARNT and ALK3 transcription: FK506 0.2 mg/kg or GPI-1046 30 mg/kg orally per day starting three days after UUO; for intrarenal NFAT signaling: picomolar FK506 or GPI-1046
Method: Eight to twelve weeks-old C57/6, yGTcre−;Yy1fl/fl and yGTcre+;Yy1fl/fl mice were anesthetized with isoflurane inhalation (2-3%), analgesia was performed by subcutaneous injection of 0.1 mg/kg body weight per day Buprenorphine. The ureter was separated from the surrounding tissues and two ligatures were placed about 5 mm apart in upper two-thirds of the left ureter to obtain reliable obstruction. Mice were sacrificed 3, 7 or 10 days after ureteral obstruction for further analyses, as described before (53, 153-155).
Paraffin-embedded specimens were deparaffinized in xylene and rehydrated in ethanol containing distilled water. Tissue sections were stained using polyclonal antibodies against ALK3 (sc-20736, Santa Cruz Biotechnology, Dallas, USA) and ARNT (3718S, Cell Signaling, Danvers, USA), peroxidase labeling was performed using Vectastain Universal Elite ABC Kit (Vector Laboratories, Burlingame, USA) according to the manufacturer's protocol. AEC Substrate-Chromogen (Dako, Glostrup, Denmark) was applied for peroxidase visualization according to the manufacturer's protocol. Nuclear counterstain was performed by using Mayer's Hematoxylin Solution (Sigma, St. Louis, USA).
For immunofluorescent staining, primary antibodies against ARNT (5537S, Cell Signaling, Danvers, USA), Hif1α (H6535, Sigma, St. Louis, USA), Hif2α (ab20654, Abcam Biochemicals, Cambridge, UK), phosphorylated Smad1/5/8 (pSmad1/5/8, sc-12353, Santa Cruz Biotechnology, Dallas, USA), CD45 (550539, BD Biosciences, Franklin Lakes, USA), Collagen-1 (ab34710, Abcam Biochemicals, Cambridge, UK), α-smooth muscle actin (aSMA, A5228, Sigma, St. Louis, USA), FKBP12 (ab2918, Abcam Biochemicals, Cambridge, UK) and YY1 (ab12132, Abcam Biochemicals, Cambridge, UK) were used, secondary antibodies were labeled with Alexa Fluor 488 or 568 (Life Technologies, Carlsbad, USA). Renal basement membranes were stained with antibodies against Collagen-4 (1340-30, SouthernBiotech, Birmingham, USA), cardiac cell membranes with antibodies against WGA (W11261, Life Technologies, Carlsbad, USA). Nuclear staining was performed using 4′,6-diamidino-2-phenylindole (DAPI, Vector Laboratories, Burlingame, USA). Relative areas positive for Collagen-1, aSMA, tubular nuclei positive for ARNT and pSmad1/5/8 were quantified in 10 high power fields per section at 400× magnification.
For SYBR-based real-time PCR, cDNA synthesis was performed by using DNase I digestion (Invitrogen, Carlsbad, USA) and SuperScript II Reverse Transcriptase (Invitrogen, Carlsbad, USA) according to the manufacturer's protocol. 1 μL of reverse-transcribed cDNA was added to the reaction mixture containing the primer pair (200 nmol/L each) and diluted 2× Fast SYBR Green Master Mix (Applied Biosystems, Carlsbad, USA) in a final volume of 20 μL for each PCR reaction. The real-time PCR reactions were performed in a 96-well reaction plate using the StepOne Plus Real-Time System (Applied Biosystems, Carlsbad, USA) and were done in triplicates. An initiation step at 95° C. for 20 seconds was followed by 40 cycles at 95° C. for 3 to seconds and 60° C. for 30 seconds, with one cycle of dissociation at 95° C. for 15 seconds, 60° C. for 60 seconds, and 95° C. for 15 seconds. The intercalation of SYBR Green dye and its fluorescent signal is directly proportional to the amount of amplified DNA and was transformed into the cycle threshold (Ct). For normalization, the Ct values of the housekeeping genes Gapdh and Actb were subtracted from the Ct values of the gene of interest to generate the dCt values. The relative expression levels were calculated using the equation 2^−ddCt.
Tissue and cells were homogenized in NP40 lysis buffer (Life technologies, Carlsbad, USA) supplemented with protease inhibitor cocktail (Roche, Basel, Switzerland).

functional parenchyma = assay: Streptozotocin (STZ) model of diabetic nephropathy; type: in vivo; details: STZ mice; FK506 0.2 mg/kg or GPI-1046 10 mg/kg subcutaneously per day
Method: Based on these observations, we next hypothesized that FK506 and small molecule FKBP12 inhibitor GPI-1046 could equally protect functional parenchyma in an experimental models of diabetic nephropathy (168). Diabetes was induced in 8 to 12 weeks old C57BL/6N mice by a single intraperitoneal injection of streptozotocin (STZ) at 200 mg/kg in 10 mmol/L citrate buffer (pH 4.5), citrate buffer alone was injected as control (168). FK506 (0.2 mg/kg body weight) and GPI-146 (10 mg/kg body weight) in DMSO once daily were applied by subcutaneous injections starting one day prior of STZ administration. At day 3 after STZ injection, diabetes was confirmed by urine dipstick. Mice were sacrificed 8 weeks after STZ injection for further analyses.

ARNT = ARNT mRNA expression levels in organs of treated mice (qRT-PCR); type: in vivo; details: FK506 0.2 mg/kg or GPI-1046 30 mg/kg orally per day; kidney, heart, brain, spinal cord, skin, liver, lung and intestine
Method: Solutions were changed once a day and mice were sacrificed at indicated time points.
Mice were injected subcutaneously with 10 mg/kg body weight per day GPI-1046 (Santa Cruz Biotechnology, Dallas, USA) in DMSO once daily starting one day prior of surgery, control mice received equivalent volume of vehicle DMSO. For oral administration, GPI-1046 stock solution was diluted in glucose-water (5%) and orally applied on the basis of an average drinking volume of 3 mL and a body weight of 20 g per mouse. Three days after challenging with UUO, mice were treated orally with either vehicle buffer glucose (5%) or 30 mg/kg body weight per day GPI-1046, respectively.
For SYBR-based real-time PCR, cDNA synthesis was performed by using DNase I digestion (Invitrogen, Carlsbad, USA) and SuperScript II Reverse Transcriptase (Invitrogen, Carlsbad, USA) according to the manufacturer's protocol. 1 μL of reverse-transcribed cDNA was added to the reaction mixture containing the primer pair (200 nmol/L each) and diluted 2× Fast SYBR Green Master Mix (Applied Biosystems, Carlsbad, USA) in a final volume of 20 μL for each PCR reaction. The real-time PCR reactions were performed in a 96-well reaction plate using the StepOne Plus Real-Time System (Applied Biosystems, Carlsbad, USA) and were done in triplicates. […] The relative expression levels were calculated using the equation 2^−ddCt.

[2] = UUO, FK506 0.2 mg/kg or GPI-1046 30 mg/kg orally per day starting three days after UUO
[3] = UUO, FK506 0.02-5.0 mg/kg or CsA 10 mg/kg orally per day starting one day prior to UUO
[4] = UUO, VMO 12.5 mg/kg intraperitoneally or FK506 0.2 mg/kg orally per day
[5] = UUO, intrarenal ARNT induction depleted (Arnt-VMO)

Structure (SMILES) | YY1 binding to the ARNT proximal promoter (ARNT proximal promoter) | effect of FK506 on ALK3 expression, nuclear pSmad1/5/8, tubular injury or interstitial fibrosis (UUO-challenged kidneys; UUO mice that had also received Fkbp12-VMO or Yy1-VMO) | effect of FK506 on BMP signaling, tubular injury, renal fibrogenesis, ALK3 transcription (UUO-challenged kidneys; UUO, mice with YY1 depleted in TECs (yGTcre+;Yy1fl/fl), FK506 0.2 mg/kg orally per day) | tubular injury and renal fibrogenesis (UUO-challenged kidneys; [2]) | chronic tubular injury (UUO-challenged kidneys; [3]) | interstitial fibrosis (UUO-challenged kidneys; [3]) | tubular injury and tubulointerstitial fibrosis (UUO-challenged kidneys; [4]) | protection of kidneys from tubular injury and progressive fibrotic disease (UUO-challenged kidneys; [5]) | renal ARNT expression ([1]; UUO mice, low-dose FK506 or CsA) | nuclear pSmad1/5/8 ([1]; UUO-challenged murine kidneys) | expression of ALK3 ([1]; UUO-challenged murine kidneys, treatment starting one day prior) | canonical BMP signaling responses ([1]; UUO) | intrarenal ARNT and ALK3 transcription ([1]; UUO) | intrarenal ARNT, ALK3 and nuclear pSmad1/5/8 immunostaining [1, 4] | intrarenal ALK3-dependent BMP signaling responses [1, 5] | intrarenal NFAT signaling ([1]; UUO) | protection of functional parenchyma from chronic injury (functional parenchyma) | transcriptional ARNT induction in organs (ARNT) | tubular injury and renal fibrogenesis (UUO-challenged kidneys; UUO, 10 mg/kg subcutaneously per day starting one day prior) | intrarenal ARNT and ALK3 transcription, BMP signaling responses ([1]; UUO, 10 mg/kg subcutaneously per day starting one day prior, compared to FK506)
C=CC[C@@H]1/C=C(\C)C[C@H](C)C[C@H](OC)[C@H]2O[C@@](O)(C(=O)C(=O)N3CCCC[C@H]3C(=O)O[C@H](/C(C)=C/[C@@H]3CC[C@@H](O)[C@H](OC)C3)[C@H](C)[C@@H](O)CC1=O)[C@H](C)C[C@@H]2OC [FK506, tacrolimus] | reduced | no additive effects | no additive effects | attenuated | reduced | reduced | attenuated | failure of FK506 to protect | significantly increased | nuclear pSmad1/5/8 accumulation | specifically induced | enhanced | equally effective | equally induced | failed to induce | not affecting | equally effective | transcriptional ARNT induction was present |  | 
CCC(C)(C)C(=O)C(=O)N1CCC[C@H]1C(=O)OCCCc1cccnc1 [GPI-1046, 3-(3-pyridyl)-1-propyl-(2S)-1-(3,3-dimethyl-1,2-dioxopentyl)-2-pyrrolidinedine carboxylate] |  |  |  | attenuated |  |  |  |  |  |  |  | enhanced | equally effective |  |  | not affecting | equally effective | transcriptional ARNT induction was present | protected | equally induced
